In test [1] the target is T1, Caspase-3 (Homo sapiens, UniProt P42574).
T1 sequence (P42574 whole entry): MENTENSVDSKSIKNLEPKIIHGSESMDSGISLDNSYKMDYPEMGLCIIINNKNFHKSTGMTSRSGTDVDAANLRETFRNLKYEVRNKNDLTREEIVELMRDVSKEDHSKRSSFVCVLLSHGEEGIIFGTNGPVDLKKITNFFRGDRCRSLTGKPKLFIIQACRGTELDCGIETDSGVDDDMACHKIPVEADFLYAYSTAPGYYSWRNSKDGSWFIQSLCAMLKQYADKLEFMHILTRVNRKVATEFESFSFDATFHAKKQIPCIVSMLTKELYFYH
Type of test: functional.

Test [2] has as its target Serine/threonine-protein phosphatase (Homo sapiens, UniProt Q9BPW0). The test can be described thus: inhibition of protein phosphatase 5 activity – biochemical, fluorescence, dose response (AID 2395).
Test [3] addresses T1, Caspase-3. The test can be described thus: SAR Analysis of small molecule inhibitors of Sentrin-specific proteases (SENPs) using a Caspase-3 Selectivity assay. [Related pubchem assays (depositor defined):AID2540, AID2599, AID434973, AID489001]. In kind it is functional.
Test [4] has as its target T2, Sentrin-specific protease 6 (Homo sapiens, UniProt Q9GZR1).
T2 sequence (Q9GZR1 whole entry): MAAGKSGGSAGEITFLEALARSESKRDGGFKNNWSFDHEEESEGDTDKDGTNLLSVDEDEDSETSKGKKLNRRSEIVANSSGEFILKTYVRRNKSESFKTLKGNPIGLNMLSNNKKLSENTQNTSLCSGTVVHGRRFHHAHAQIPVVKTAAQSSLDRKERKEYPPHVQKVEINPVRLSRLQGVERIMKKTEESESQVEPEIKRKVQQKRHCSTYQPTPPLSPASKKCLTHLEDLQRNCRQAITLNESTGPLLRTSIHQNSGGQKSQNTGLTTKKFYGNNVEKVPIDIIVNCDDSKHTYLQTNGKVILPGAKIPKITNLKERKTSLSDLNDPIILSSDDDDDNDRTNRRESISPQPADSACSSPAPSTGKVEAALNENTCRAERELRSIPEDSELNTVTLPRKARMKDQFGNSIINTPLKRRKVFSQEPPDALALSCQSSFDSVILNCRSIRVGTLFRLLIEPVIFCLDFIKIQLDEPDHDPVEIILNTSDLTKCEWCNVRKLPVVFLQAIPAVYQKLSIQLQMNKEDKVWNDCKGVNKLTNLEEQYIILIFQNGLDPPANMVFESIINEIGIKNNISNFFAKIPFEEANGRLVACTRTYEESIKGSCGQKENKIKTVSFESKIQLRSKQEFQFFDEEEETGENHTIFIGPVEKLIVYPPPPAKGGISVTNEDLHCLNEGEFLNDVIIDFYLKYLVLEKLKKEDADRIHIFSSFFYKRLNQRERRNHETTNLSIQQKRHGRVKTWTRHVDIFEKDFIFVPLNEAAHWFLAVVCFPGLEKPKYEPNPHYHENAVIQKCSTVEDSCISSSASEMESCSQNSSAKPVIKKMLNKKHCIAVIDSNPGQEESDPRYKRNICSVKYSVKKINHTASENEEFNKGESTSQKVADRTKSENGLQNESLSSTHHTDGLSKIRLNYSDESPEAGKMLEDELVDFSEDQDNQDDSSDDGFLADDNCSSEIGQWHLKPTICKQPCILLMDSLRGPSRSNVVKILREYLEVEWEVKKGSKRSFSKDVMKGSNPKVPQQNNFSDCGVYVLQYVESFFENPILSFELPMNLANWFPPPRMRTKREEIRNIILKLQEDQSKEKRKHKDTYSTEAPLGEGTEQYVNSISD
Nature of the test: SAR Analysis of small molecule inhibitors of Sentrin-specific protease 6 (SENP6) using a Luminescent assay. [Related pubchem assays (depositor defined):AID2582, AID2599]. Type of test: functional.

The target of test [5] is Dual specificity tyrosine-phosphorylation-regulated kinase 1A (Homo sapiens, UniProt Q13627). Type of test: functional.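 Further: measured against DYRK1A as one member of a broad kinome profiling panel.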
In test [6] the target is Maternal embryonic leucine zipper kinase (Homo sapiens, UniProt Q14680). Type of test: functional.
Chain of Maternal embryonic leucine zipper kinase (Q14680 whole entry): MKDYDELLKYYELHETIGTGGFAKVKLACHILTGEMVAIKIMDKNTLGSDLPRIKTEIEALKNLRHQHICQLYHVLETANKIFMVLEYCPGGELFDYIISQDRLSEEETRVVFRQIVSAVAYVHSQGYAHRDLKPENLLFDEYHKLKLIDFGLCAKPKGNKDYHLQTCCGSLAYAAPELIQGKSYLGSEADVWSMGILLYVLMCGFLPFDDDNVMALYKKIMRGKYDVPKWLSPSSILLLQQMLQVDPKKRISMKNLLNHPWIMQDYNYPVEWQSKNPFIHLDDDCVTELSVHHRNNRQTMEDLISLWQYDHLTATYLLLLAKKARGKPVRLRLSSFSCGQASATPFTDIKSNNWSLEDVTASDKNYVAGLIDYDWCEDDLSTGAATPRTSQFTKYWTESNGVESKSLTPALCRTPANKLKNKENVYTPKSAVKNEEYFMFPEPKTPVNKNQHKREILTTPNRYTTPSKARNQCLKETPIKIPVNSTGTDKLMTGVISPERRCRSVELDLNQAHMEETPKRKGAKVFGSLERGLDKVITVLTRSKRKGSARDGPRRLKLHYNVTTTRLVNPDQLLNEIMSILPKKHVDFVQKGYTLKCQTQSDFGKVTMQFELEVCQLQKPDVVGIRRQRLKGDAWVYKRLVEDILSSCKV
Test [7] concerns the target Casein kinase II subunit alpha (Homo sapiens, UniProt P68400). In kind it is functional.
Test [8] deals with Testis-specific serine/threonine-protein kinase 1 (Homo sapiens, UniProt Q9BXA7). In kind it is functional.
Test [9] concerns the target Serine/threonine-protein kinase MRCK alpha (Homo sapiens, UniProt Q5VT25). Type of test: functional.
The target in test [10] is Dual specificity mitogen-activated protein kinase kinase 1 (Homo sapiens, UniProt Q02750). The test can be described thus: Navigating the Kinome. Panel member name: MAP2K1. Type of test: functional.
Test [11] concerns the target Vascular endothelial growth factor receptor 2 (Homo sapiens, UniProt P35968). Type of test: functional.
Test [12] has as its target Tyrosine-protein kinase ITK/TSK (Homo sapiens, UniProt Q08881). Type of test: functional.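 Further: affinity for ITK measured as one member of a broad kinase panel profiling binding across the kinome.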
The target in test [13] is Mitogen-activated protein kinase 9 (Homo sapiens, UniProt P45984). Type of test: functional.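 Further: value from a kinome panel profiling assay, MAPK9 panel entry.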
The target in test [14] is Tyrosine-protein kinase Lck (Homo sapiens, UniProt P06239). Type of test: functional.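 Further: lck was assayed as one member of a kinase panel.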
Test [15] addresses Calcium/calmodulin-dependent protein kinase type II subunit gamma (Homo sapiens, UniProt Q13555). Type of test: functional.
In test [16] the target is MAP kinase-activated protein kinase 5 (Homo sapiens, UniProt Q8IW41). Type of test: functional.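 Further: measured as one member of a kinome panel.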
Test [17] concerns the target Mitogen-activated protein kinase 14 (Homo sapiens, UniProt Q16539). Type of test: functional.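 Further: part of a kinome-wide panel, MAPK14 entry.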
Test [18] deals with Proto-oncogene tyrosine-protein kinase receptor Ret (Homo sapiens, UniProt P07949). Type of test: functional.
The target in test [19] is Proto-oncogene tyrosine-protein kinase Src (Homo sapiens, UniProt P12931). In kind it is functional.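 Further: SRC entry within a kinome-wide kinase profiling panel.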
For test [20], the target named is Cyclin-dependent kinase 7 (Homo sapiens, UniProt P50613). In kind it is functional.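 Further: value comes from a kinome-wide kinase profiling panel in which CDK7 is one member.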
Chain of Cyclin-dependent kinase 7 (P50613 whole entry): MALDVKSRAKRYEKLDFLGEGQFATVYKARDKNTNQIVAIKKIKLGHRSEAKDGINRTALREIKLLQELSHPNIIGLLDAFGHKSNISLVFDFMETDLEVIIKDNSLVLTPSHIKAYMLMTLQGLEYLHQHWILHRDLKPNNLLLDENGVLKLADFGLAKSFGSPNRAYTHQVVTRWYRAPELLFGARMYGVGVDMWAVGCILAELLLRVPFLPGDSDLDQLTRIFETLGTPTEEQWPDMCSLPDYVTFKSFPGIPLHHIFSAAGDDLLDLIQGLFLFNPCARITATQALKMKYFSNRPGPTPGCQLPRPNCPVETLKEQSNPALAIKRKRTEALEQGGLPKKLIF
Test [21] concerns the target Tyrosine-protein kinase BTK (Homo sapiens, UniProt Q06187). In kind it is functional.
For test [22], the target named is Serine/threonine-protein kinase pim-2 (Homo sapiens, UniProt Q9P1W9). In kind it is functional.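 Further: value comes from a broad kinase panel profiling study in which PIM2 was one of the panel members.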
Test [23] has as its target Protein-tyrosine kinase 2-beta (Homo sapiens, UniProt Q14289). Type of test: functional.
Test [24] has as its target Mitogen-activated protein kinase 12 (Homo sapiens, UniProt P53778). Type of test: functional.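 Further: measured as one member of a kinome-wide kinase profiling panel.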
The target in test [25] is Macrophage colony-stimulating factor 1 receptor (Homo sapiens, UniProt P07333). In kind it is functional.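 Further: value comes from the Navigating the Kinome screening panel, CSF1R member.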

Molecules are shown by their SMILES. Activity calls are given as the source filed them. A value given as a limit tells only on which side of the number the result lay.

Chain of Vascular endothelial growth factor receptor 2 (P35968 whole entry): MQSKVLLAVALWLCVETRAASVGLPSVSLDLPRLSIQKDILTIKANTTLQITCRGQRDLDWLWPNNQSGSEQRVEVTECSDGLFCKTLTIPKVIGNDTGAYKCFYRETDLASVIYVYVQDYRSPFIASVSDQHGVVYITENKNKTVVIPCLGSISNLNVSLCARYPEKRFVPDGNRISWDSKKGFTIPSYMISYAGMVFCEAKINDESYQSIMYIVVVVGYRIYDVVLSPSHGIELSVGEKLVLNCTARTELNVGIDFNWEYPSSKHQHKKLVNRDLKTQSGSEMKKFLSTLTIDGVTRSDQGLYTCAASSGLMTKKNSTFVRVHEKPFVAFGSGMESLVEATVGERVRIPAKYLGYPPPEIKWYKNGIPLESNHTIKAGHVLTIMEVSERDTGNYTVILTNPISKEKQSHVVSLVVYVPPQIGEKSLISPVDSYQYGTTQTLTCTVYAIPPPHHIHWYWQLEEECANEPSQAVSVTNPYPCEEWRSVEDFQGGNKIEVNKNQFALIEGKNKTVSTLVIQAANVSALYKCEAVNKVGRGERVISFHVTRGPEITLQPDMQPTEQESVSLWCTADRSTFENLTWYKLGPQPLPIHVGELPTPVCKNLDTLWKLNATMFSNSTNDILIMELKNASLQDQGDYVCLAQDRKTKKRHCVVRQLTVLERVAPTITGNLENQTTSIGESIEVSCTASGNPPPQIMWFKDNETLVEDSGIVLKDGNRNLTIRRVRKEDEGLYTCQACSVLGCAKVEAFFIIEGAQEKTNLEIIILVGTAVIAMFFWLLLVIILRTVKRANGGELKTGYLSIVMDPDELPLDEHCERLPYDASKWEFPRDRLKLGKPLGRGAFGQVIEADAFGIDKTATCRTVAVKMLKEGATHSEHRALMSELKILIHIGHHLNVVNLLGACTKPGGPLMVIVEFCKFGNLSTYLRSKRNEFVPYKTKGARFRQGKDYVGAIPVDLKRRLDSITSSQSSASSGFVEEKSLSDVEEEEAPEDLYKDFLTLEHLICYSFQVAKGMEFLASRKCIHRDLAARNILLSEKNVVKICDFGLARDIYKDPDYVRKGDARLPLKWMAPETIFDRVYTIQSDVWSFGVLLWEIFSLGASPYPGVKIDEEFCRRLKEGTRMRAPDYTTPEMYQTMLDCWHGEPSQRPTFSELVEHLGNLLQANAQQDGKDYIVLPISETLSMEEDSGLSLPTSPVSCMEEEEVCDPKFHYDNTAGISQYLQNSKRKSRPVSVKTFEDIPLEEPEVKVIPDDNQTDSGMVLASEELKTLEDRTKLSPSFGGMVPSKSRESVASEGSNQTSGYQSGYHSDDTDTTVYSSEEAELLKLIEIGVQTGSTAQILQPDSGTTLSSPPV
Chain of Tyrosine-protein kinase BTK (Q06187 whole entry): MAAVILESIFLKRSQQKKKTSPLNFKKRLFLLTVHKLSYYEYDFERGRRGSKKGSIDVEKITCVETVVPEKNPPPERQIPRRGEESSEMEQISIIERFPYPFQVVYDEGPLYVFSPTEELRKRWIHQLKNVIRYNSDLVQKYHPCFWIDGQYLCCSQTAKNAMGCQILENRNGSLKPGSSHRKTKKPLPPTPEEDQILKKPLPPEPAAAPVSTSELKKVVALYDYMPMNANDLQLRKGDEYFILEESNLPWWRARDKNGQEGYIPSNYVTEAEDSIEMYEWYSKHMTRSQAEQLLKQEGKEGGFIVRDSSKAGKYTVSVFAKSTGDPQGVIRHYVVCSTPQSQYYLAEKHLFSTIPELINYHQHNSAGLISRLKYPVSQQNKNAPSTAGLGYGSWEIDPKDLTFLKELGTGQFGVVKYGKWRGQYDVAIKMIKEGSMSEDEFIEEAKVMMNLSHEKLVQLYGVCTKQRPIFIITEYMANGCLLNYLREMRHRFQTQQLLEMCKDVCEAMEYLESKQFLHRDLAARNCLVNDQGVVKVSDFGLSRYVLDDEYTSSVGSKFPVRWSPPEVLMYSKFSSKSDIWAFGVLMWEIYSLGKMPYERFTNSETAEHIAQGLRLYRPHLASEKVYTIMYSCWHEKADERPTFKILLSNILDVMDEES
Chain of Serine/threonine-protein kinase MRCK alpha (Q5VT25 whole entry): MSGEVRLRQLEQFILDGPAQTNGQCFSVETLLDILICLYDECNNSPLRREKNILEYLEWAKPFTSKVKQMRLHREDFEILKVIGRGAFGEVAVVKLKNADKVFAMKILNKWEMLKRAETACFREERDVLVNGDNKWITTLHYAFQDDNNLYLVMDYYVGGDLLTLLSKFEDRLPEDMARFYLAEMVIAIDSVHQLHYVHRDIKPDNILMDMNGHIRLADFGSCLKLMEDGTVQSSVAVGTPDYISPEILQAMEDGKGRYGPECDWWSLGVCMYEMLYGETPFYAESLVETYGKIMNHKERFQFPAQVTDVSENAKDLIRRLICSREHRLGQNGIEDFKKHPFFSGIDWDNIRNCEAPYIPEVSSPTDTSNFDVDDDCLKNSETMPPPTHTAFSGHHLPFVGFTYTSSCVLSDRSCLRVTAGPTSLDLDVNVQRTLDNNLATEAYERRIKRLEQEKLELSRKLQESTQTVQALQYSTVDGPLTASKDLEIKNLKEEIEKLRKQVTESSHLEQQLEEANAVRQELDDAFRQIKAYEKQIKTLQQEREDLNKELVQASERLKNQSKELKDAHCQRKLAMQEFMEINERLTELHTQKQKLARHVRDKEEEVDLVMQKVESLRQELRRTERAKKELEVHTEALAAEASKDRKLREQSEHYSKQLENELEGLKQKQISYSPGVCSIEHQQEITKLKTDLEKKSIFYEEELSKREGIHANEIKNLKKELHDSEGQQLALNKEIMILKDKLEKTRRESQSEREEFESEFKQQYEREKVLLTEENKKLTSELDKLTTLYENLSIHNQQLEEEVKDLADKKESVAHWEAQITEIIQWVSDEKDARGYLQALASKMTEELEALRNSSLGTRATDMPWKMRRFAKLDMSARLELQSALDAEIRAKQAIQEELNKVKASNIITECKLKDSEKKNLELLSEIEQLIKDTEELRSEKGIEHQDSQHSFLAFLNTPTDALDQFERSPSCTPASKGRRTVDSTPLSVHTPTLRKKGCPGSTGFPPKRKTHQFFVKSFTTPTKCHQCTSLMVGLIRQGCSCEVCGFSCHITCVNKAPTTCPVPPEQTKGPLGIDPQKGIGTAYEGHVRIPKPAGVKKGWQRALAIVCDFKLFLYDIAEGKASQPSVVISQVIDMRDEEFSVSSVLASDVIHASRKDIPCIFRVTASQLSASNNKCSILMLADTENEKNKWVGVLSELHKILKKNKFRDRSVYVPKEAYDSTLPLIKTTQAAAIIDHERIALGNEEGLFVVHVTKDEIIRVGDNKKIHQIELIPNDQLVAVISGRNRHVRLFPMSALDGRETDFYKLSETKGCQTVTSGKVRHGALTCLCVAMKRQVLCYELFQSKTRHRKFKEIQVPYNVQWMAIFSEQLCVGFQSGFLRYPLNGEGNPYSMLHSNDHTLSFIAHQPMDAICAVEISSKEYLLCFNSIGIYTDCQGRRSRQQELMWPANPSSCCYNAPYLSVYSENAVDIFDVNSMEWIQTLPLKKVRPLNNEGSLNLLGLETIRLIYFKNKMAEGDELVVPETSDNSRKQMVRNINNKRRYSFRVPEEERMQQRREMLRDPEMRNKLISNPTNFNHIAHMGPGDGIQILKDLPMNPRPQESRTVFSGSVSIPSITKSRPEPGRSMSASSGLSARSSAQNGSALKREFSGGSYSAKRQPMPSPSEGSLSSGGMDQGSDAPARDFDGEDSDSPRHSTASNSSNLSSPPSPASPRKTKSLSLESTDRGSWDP
Chain of Mitogen-activated protein kinase 14 (Q16539 whole entry): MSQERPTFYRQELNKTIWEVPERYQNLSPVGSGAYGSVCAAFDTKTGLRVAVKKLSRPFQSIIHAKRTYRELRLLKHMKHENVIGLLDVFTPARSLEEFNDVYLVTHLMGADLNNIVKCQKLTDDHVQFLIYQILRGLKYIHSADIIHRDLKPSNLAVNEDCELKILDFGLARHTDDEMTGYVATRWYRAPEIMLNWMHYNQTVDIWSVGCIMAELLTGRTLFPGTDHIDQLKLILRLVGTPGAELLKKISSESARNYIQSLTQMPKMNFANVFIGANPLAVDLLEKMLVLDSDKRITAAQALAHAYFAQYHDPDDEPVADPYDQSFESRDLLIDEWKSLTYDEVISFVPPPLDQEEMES

In general, IC50 refers to the midpoint of a concentration-inhibition curve. As to `Cc1c(NC(=O)C(C)OC(=O)c2ccc([N+](=O)[O-])s2)c(=O)n(-c2ccccc2)n1C` (stereo not given), the IC50 in [1] was 13.6 µM (active).
Turning to `COc1cc(Br)c(C(=O)c2nccc3cc(OC)c(OC)cc23)cc1OC`, the half-inhibitory concentration (IC50) is 5.92 µM (active) in [2], 23.9 µM (active) in [3] and 14.3 µM (active) in [4].
By Ki is commonly meant the dissociation constant of the complex between target and ligand, obtained from inhibition or displacement. In the case of `CC(N)C1CCC(C(=O)Nc2ccnc3[nH]ccc23)CC1` (stereo not given), the Ki in [5] was > 1.26 µM (inactive); in [6] it was > 1.58 µM (inactive); in test [7], > 6.31 µM (inactive); in [8], > 1.58 µM (inactive); in test [9], 3.98 µM (active); in test [10], > 2.51 µM (inactive). The Ki in [11] is > 5.01 µM (inactive); in [12], > 5.01 µM (inactive); in test [13], > 3.98 µM (inactive); in test [14], > 3.98 µM (inactive); in [15] it was > 6.31 µM (inactive); in [16], > 1.58 µM (inactive). For the same molecule, the Ki in test [17] was > 3.98 µM (inactive); in [18], > 2.51 µM (inactive); in test [19], > 2 µM (inactive); in test [20] it was 1 µM (active); in [21], > 3.98 µM (inactive); in [22], > 1.58 µM (inactive). Moreover, the Ki was > 1.58 µM (inactive) in test [23], > 6.31 µM (inactive) in test [24] and > 2.51 µM (inactive) in [25].

For the origin of these results see ChEMBL document CHEMBL1201862, “PubChem BioAssay data set” (2004).
